Data from patent publication US11866430B2, “Naphthyridinone compounds useful as T cell activators” (priority 2018, dated 2024).

Tested on: naïve human CD8 T cells
Test: Human CD8 T cells pERK Assay
Type: cell-based
Conditions: T-cell, read-out: HuCD8 pERK IC50
Experimental: Frozen naïve human CD8 T cells were thawed in AIM-V media, incubated for 2 h in 37° C., and counted. The CD8 positive T cells were added to 384-well tissue culture plate at 20,000 cells per well in AIM-V media. One compound was added to each well, then bead bound anti-human CD3 and anti-CD28 mAb were added at final concentration of 0.3 μg/mL. The cells were incubated at 37° C. for 10 minutes. The reaction was stopped by adding lysis buffer from the AlphaLISA Surefire kit. (Perkin Elmer, cat #ALSU-PERK-A). Lysate (5 μL per well) was transferred into a new 384-well white assay plate for pERK activation measurement.

| SMILES | IC50 |
| --- | --- |
| C#CCn1c(=O)c([N+](=O)[O-])c(N2CCN(C(c3ccc(F)cc3)C3CC3)CC2)c2nc(C#N)ccc21 (single isomer, unassigned) [Example 143, 8-(4-(cyclopropyl(4-fluorophenyl)methyl)piperazin-1-yl)-7-nitro-6-oxo-5-(prop-2-yn-1-yl)-5,6-dihydro-1,5-naphthyridine-2-carbonitrile] | 60 nM |
| COc1cc(F)ccc1C(c1ccc(F)cc1)N1CCN(c2c([N+](=O)[O-])c(=O)n(C)c3ccc(C#N)nc23)CC1 (single isomer, unassigned) [Example 124, 8-(4-((4-fluoro-2-methoxyphenyl)(4-fluorophenyl)methyl)piperazin-1-yl)-5-methyl-7-nitro-6-oxo-5,6-dihydro-1,5-naphthyridine-2-carbonitrile] | 360 nM |
